Residue numbers refer to the chain shown, from its start. The source made the active and inactive calls. The rule behind the calls is not given here.
Key:
physchem = settings: 1-octanol/aqueous buffer, pH 7.4
Description: 1-octanol/aqueous buffer partition coefficient, log D of the compound at pH 7.4 by UV-vis/HPLC method

Renin [1] = target: T1, Renin (Homo sapiens, UniProt P00797)
T1 sequence (P00797 whole entry): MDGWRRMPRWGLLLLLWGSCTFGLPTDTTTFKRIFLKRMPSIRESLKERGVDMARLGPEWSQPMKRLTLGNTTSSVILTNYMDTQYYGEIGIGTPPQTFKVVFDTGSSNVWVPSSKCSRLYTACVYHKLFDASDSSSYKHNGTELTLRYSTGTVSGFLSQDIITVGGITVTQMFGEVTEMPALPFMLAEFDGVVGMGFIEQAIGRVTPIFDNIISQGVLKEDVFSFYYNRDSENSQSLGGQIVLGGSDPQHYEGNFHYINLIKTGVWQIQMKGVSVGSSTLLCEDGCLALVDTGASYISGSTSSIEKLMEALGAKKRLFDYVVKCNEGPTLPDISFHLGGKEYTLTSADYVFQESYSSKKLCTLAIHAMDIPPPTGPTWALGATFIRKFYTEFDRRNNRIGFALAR
Description: Inhibition of renin in human plasma by radioimmunoassay

Renin [2] = target: T1, Renin; remark: listed apart in the source
Description: Inhibition of recombinant human renin using angiotensinogen as substrate pretreated for 10 mins followed by substrate addition measured after 30 mins in absence of human serum albumin by ELISA

in vivo [3] = settings: rat, po, 1 mg/kg
in vivo [4] = settings: rat, po, 1 mg/kg; remark: listed apart in the source
in vitro = settings: PAMPA, pH 7.4
Description: Permeability of the compound at pH 7.4 buffer after 3 hrs by PAMPA

in vivo [5] = settings: rat, iv, 0.1 mg/kg
in vivo [6] = settings: rat, iv
Description: Clearance in rat at 0.1 mg/kg, iv or 1 mg/kg, po administered as cassette dose by LC-MS/MS analysis

Renin [7] = target: T1, Renin; remark: listed apart in the source
Description: Inhibition of recombinant human renin using angiotensinogen as substrate pretreated for 10 mins followed by substrate addition measured after 30 mins in presence of human serum albumin by ELISA

Cynomolgus monkey [8] = settings: Macaca fascicularis; Plasma; 5 to 15 mg/kg
[9] = Tmax in cynomolgus monkey at 0.1 mg/kg, iv or 1 mg/kg, po administered as cassette dose by LC-MS/MS analysis; assay type: ADME, organism-based, Macaca fascicularis; settings: in vivo
[10] = Clearance in cynomolgus monkey at 0.1 mg/kg, iv or 1 mg/kg, po administered as cassette dose by LC-MS/MS analysis; assay type: ADME, organism-based, Macaca fascicularis; settings: in vivo
[11] = AUC in cynomolgus monkey at 0.1 mg/kg, iv administered as cassette dose by LC-MS/MS analysis; assay type: ADME, organism-based, Macaca fascicularis; settings: in vivo
[12] = AUC in cynomolgus monkey at 1 mg/kg, po administered as cassette dose by LC-MS/MS analysis; assay type: ADME, organism-based, Macaca fascicularis; settings: in vivo
[13] = Oral bioavailability in cynomolgus monkey at 1 mg/kg administered as cassette dose by LC-MS/MS analysis; assay type: ADME, organism-based, Macaca fascicularis; settings: in vivo
Cynomolgus monkey [14] = settings: Macaca fascicularis; Plasma; 15 mg/kg
[15] = Cmax in cynomolgus monkey at 0.1 mg/kg, iv or 1 mg/kg, po administered as cassette dose by LC-MS/MS analysis; assay type: ADME, organism-based, Macaca fascicularis; settings: in vivo
Rattus norvegicus [16] = species: Rattus norvegicus; settings: in vivo, po, 1 mg/kg
Renin [17] = target: T2, Renin (Macaca mulatta, UniProt Q6DLW5)
T2 sequence (Q6DLW5 whole entry): T1 sequence (P00797 whole entry) with T68A, I214L, S235A, Q270P, R406H
Description: Inhibition of renin in monkey plasma

Renin [18] = target: T3, Renin (Rattus norvegicus, UniProt P08424)
T3 sequence (P08424 whole entry): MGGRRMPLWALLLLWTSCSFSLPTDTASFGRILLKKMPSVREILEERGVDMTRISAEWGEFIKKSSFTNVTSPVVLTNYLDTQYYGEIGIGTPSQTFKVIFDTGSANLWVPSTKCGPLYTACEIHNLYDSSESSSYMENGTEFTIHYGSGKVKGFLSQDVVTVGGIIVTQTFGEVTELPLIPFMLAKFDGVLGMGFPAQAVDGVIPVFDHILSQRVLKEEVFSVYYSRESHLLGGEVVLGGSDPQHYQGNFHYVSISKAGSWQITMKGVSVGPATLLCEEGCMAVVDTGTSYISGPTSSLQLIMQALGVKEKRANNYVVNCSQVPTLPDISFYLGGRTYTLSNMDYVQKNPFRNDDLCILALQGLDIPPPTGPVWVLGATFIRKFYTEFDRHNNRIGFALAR
Description: Inhibition of renin in rat plasma

Cynomolgus monkey [19] = experiment: In vivo inhibition of plasma renin in po dosed cynomolgus monkey measured at 4 and 24 hrs post dose by radioimmunoassay; assay type: functional, organism-based; settings: Macaca fascicularis
Rattus norvegicus [20] = experiment: Metabolic stability in rat at 0.1 mg/kg, iv or 1 mg/kg, po administered as cassette dose by LC-MS/MS analysis; assay type: ADME, organism-based; settings: in vivo

| SMILES | logD (physchem) | IC50 (Renin [1]) | IC50 (Renin [2]) | bioavailability (in vivo [3]) | AUC (in vivo [4]) | Papp at 3 h (in vitro) | AUC (in vivo [5]) | clearance (in vivo [6]) | IC50 (Renin [7]) | other results |
| --- | --- | --- | --- | --- | --- | --- | --- | --- | --- | --- |
| COCCCCc1c(C(=O)N(CC(C)C)[C@@H]2CNC[C@H](C(=O)N3CCOCC3)C2)nc2ccccn12 | 1.54 | 1.1 nM | 1.6 nM | 2.2% | 9.5 ng·h/mL | 6.3 ×10⁻⁶ cm/s | 43.5 ng·h/mL | 39 mL/min/kg | 2.1 nM |  |
| COCCCCn1c(C(=O)N(CC(C)C)[C@H]2CCCNC2)nc2ccccc21 | 2 | 9.1 nM | 0.9 nM | 12% | 59.7 ng·h/mL | 32.4 ×10⁻⁶ cm/s | 52.1 ng·h/mL | 33 mL/min/kg | 1.6 nM |  |
| COCCCCc1c(C(=O)N(CC(C)C)[C@@H]2CNC[C@H](C(=O)N3CCOCC3)C2)nnn1-c1ccccc1 | 1.94 | 0.4 nM | 1 nM | 1.9% | 3.5 ng·h/mL | 36.9 ×10⁻⁶ cm/s | 18.4 ng·h/mL | 92.4 mL/min/kg | 0.65 nM |  |
| COCCCCn1nc(C(C)(C)C)cc1C(=O)N(CC(C)C)[C@@H]1CNC[C@H](C(=O)N2CCOCC2)C1 | 2.73 |  | 2 nM |  |  |  |  |  | 3.6 nM |  |
| COCCCCn1nc(-c2ccccc2)cc1C(=O)N(CC(C)C)[C@@H]1CNC[C@H](C(=O)N2CCOCC2)C1 | 2.68 |  | > 100 nM |  |  |  |  |  | > 100 nM |  |
| COCCCCc1c(C(=O)N(CC(C)C)[C@@H]2CNC[C@H](C(=O)N3CCOCC3)C2)cnn1-c1ccccc1 | 1.78 | 1.3 nM | 1.1 nM | 0.3% | 0.7 ng·h/mL | 7.8 ×10⁻⁶ cm/s | 20.8 ng·h/mL | 80.4 mL/min/kg | 1.2 nM |  |
| COCCCCn1c(C(=O)N(CC(C)C)[C@@H]2CNC[C@H](C(=O)N3CCOCC3)C2)cnc1-c1ccccc1 | 2.03 | 2.8 nM | 4.4 nM | < 1% |  | 7.2 ×10⁻⁶ cm/s | 17.6 ng·h/mL | 96.7 mL/min/kg | 3.3 nM |  |
| COCCCCn1c(C(=O)N(CC(C)C)[C@@H]2CNC[C@H](C(=O)N3CCOCC3)C2)nnc1-c1ccccc1 | 1.79 | 1.2 nM | 1.4 nM | < 1% |  | 11.6 ×10⁻⁶ cm/s | 15.3 ng·h/mL | 112 mL/min/kg | 1.8 nM |  |
| CCn1c(C(=O)N(CC(C)C)[C@@H]2CNC[C@H](C(=O)N3CCOCC3)C2)nc2ccccc21 | 1.79 | 1.3 nM | 0.66 nM | 14% | 58.9 ng·h/mL | 24.2 ×10⁻⁶ cm/s | 43.4 ng·h/mL | 38.5 mL/min/kg | 0.89 nM |  |
| COCCCCn1c(C(=O)N(CC(C)C)[C@@H]2CNC[C@H](CO)C2)nc2ccccc21 | 1.77 | 1.5 nM | 0.28 nM | 9.6% | 103 ng·h/mL | 8.2 ×10⁻⁶ cm/s | 108 ng·h/mL | 15.5 mL/min/kg | 0.32 nM |  |
| COCCCCn1c(C(=O)N(CC(C)C)[C@@H]2CNC[C@H](C(C)(C)O)C2)nc2ccccc21 | 1.98 | 2.6 nM | 0.72 nM |  |  | 20.2 ×10⁻⁶ cm/s |  |  | 1.5 nM |  |
| CCCCCNc1nc(C(C)(C)C)ncc1C(=O)N(CC(C)C)[C@@H]1CNC[C@H](C(=O)N2CCOCC2)C1 | 4.45 | 5.4 nM | 0.2 nM | < 1% |  | 25.2 ×10⁻⁶ cm/s | 27.3 ng·h/mL | 62.4 mL/min/kg | 0.64 nM |  |
| COCCCOc1cc(C[C@@H](C[C@H](N)[C@@H](O)C[C@H](C(=O)NCC(C)(C)C(N)=O)C(C)C)C(C)C)ccc1OC |  |  |  |  |  |  |  |  |  | inhibition (Cynomolgus monkey [8]): Active; Tmax [9]: 3.33 h; clearance [10]: 3.37 mL/min/kg; AUC [11]: 501 ng·h/mL; AUC [12]: 25.9 ng·h/mL; bioavailability [13]: 0.6%; inhibition (Cynomolgus monkey [14]): Active; Cmax [15]: 3.5 ng/mL |
| CCCCCCc1nc(C(C)(C)C)ncc1C(=O)N(CC(C)C)[C@@H]1CNC[C@H](C(=O)N2CCOCC2)C1 | 4.77 |  |  |  |  | 43.5 ×10⁻⁶ cm/s | 42 ng·h/mL |  |  | AUC (Rattus norvegicus [16]): 20.9 ng·h/mL |
| COCCCCc1c(C(=O)N(CC(C)C)[C@@H]2CNC[C@H](C(=O)N3CCOCC3)C2)nc2n1CCCC2 |  | 3.3 nM | 2.2 nM |  |  |  |  |  | 2.7 nM |  |
| CC(C)CN(C(=O)c1nc2ccccc2[nH]1)[C@@H]1CNC[C@H](C(=O)N2CCOCC2)C1 | 1.74 | 4 nM | 0.76 nM | 8.2% | 41.7 ng·h/mL | 6 ×10⁻⁶ cm/s | 50.7 ng·h/mL | 34.2 mL/min/kg | 0.59 nM |  |
| COCCCOc1nc(C(C)(C)C)ncc1C(=O)N(CC(C)C)[C@@H]1CNC[C@H](C(=O)N2CCOCC2)C1 | 2.81 |  | > 100 nM |  |  | 27.2 ×10⁻⁶ cm/s |  |  | > 100 nM |  |
| CCn1c(C(=O)N(CC(C)C)[C@@H]2CNC[C@H](CO)C2)nc2ccccc21 | 1.73 | > 10 nM | 16 nM |  |  | 5.5 ×10⁻⁶ cm/s |  |  | 21 nM |  |
| CC(C)CN(C(=O)c1nc2ccccc2n1C)[C@@H]1CNC[C@H](C(=O)N2CCOCC2)C1 | 1.71 | 2.9 nM | 0.63 nM | 17% | 74.2 ng·h/mL | 27.4 ×10⁻⁶ cm/s | 43.9 ng·h/mL | 38.9 mL/min/kg | 0.66 nM |  |
| COCCCCn1c(C(=O)N(CC(C)C)[C@@H]2CNC[C@H](C(=O)N3CCOCC3)C2)nc2ccccc21 | 2.11 |  |  | 14% | 92.2 ng·h/mL | 34.5 ×10⁻⁶ cm/s | 68 ng·h/mL | 25.9 mL/min/kg |  | IC50 (Renin [17]): 1.5 nM; Tmax [9]: 1.67 h; clearance [10]: 14.2 mL/min/kg; AUC [11]: 128 ng·h/mL; IC50 (Renin [18]): 310 nM; inhibition (Cynomolgus monkey [19]): Dose-dependent effect; AUC [12]: 323 ng·h/mL; bioavailability [13]: 25%; Cmax [15]: 29.1 ng/mL |
| COCCCCc1c(C(=O)N(CC(C)C)[C@@H]2CNC[C@H](C(=O)N3CCOCC3)C2)ncn1-c1ccccc1 | 1.84 | 1.2 nM | 0.83 nM | < 1% |  | 7.8 ×10⁻⁶ cm/s | 13.3 ng·h/mL | 127 mL/min/kg | 1.1 nM |  |
| COCCCCn1c(C(=O)N(CC(C)C)[C@@H]2CNC[C@H](C(=O)N3CCOCC3)C2)ccc1-c1ccccc1 | 3.08 | 3.4 nM | 0.16 nM | 5.4% | 18.5 ng·h/mL | 21.7 ×10⁻⁶ cm/s | 34.6 ng·h/mL | 49.5 mL/min/kg | 1.4 nM |  |
| COCCCNc1nc(C(C)(C)C)ncc1C(=O)N(CC(C)C)[C@@H]1CNC[C@H](C(=O)N2CCOCC2)C1 | 2.99 |  |  | < 1% |  | 39 ×10⁻⁶ cm/s | 14.1 ng·h/mL | 121 mL/min/kg |  | Stability (Rattus norvegicus [20]): Stable |
| COCCCCn1c(C(=O)N(CC(C)C)[C@@H]2CNC[C@H](C(=O)N3CCOCC3)C2)cnc1C(C)(C)C | 2.12 |  | 48 nM |  |  |  |  |  | 35 nM |  |

— ChEMBL document CHEMBL4118173, “Discovery of benzimidazole derivatives as orally active renin inhibitors: Optimization of 3,5-disubstituted piperidine to improve pharmacokinetic profile” (Bioorg Med Chem, 2018)
